The values below come from patent US20260042771A1, “HETEROCYCLIC COMPOUND FOR INDUCING DEGRADATION OF G12V MUTANT KRAS PROTEIN” (Astellas Pharma Inc., priority 2022, published 2026).

For orientation: DC50 means the concentration at which degradation of the target reaches its halfway point. A higher DC50 goes with a less potent degrader. For orientation: Dmax means the greatest extent of degradation seen. What is called pIC50 is −log10 of the IC50, conventionally taken in molar units.

pIC50: −log10 of the molar value.

Test [1] deals with T1, RAS G12V (Homo sapiens, UniProt P01116, G12V).
T1 construct: host or cells: PA-TU-8902 human pancreatic cancer cells
T1 sequence (P01116 1-188 isoform P01116-2 G12V): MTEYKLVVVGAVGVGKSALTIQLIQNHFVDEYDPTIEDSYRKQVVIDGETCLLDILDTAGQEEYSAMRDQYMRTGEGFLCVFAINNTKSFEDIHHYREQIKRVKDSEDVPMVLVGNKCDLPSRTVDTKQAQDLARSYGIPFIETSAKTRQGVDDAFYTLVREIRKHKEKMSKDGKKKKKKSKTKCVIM
As to the kind of experiment: Test Example 1: RAS G12V degradation activity by Cell ELISA in PA-TU-8902. Conditions: for DC50: 50% degradation concentration of RAS G12V, PA-TU-8902 cells, 24 hours, Cell ELISA, corrected with β-actin; for Dmax: PaTu 8902, degradation rate at the most active concentration, DMSO = 0%, Example No. 7 at 3 μM = 100%, PA-TU-8902, 24 hours. The test is classed as cell-based. The protocol: Test Example 1: Evaluation of RAS G12V Degradation Activity on Human KRAS G12V Mutant-Positive Pancreatic Cancer Line PA-TU-8902
The RAS G12V degradation activity of test compounds was evaluated by measuring the expression levels of RAS G12V by Cell ELISA.
PA-TU-8902 cells (DSMZ, ACC 179) were seeded at 36 μL per well on 384-well plates (from Greiner bio-one) to give 1.5×10^4 cells per well. As for the cell culture conditions, DMEM medium (from Sigma-Aldrich) containing 10% fetal bovine serum (from Cytiva) was used in the presence of 5% CO2 at 37° C.
The next day, the test compounds (10 points having final concentrations in the range of 3 μM to 0.1 nM), the compound of Example No. 7 having a final concentration of 3 μM as a positive control and dimethyl sulfoxide (DMSO), which was the solvent for the test compounds, as a negative control were diluted 100-fold with a fresh medium and were added at 4 μL per well. The cells were cultured for 24 hours.
The next day, the culture supernatant was removed, and 4% paraformaldehyde phosphate buffer (from FUJIFILM Wako Pure Chemical Corporation) was added at 20 μL per well. The plates were allowed to stand for 30 minutes at room temperature to thus immobilize the cells. Then, the supernatant was removed, and 0.1% Triton X-100 (from Amersham Biosciences)-containing Phosphate buffered saline (PBS) was added at 20 μL per well. After allowing to stand at room temperature for 10 minutes, the supernatant was removed. PBS was added at 25 μL per well, and the supernatant was removed to thus wash each well. The washing was performed twice in total. Subsequent washing operations were performed in the same manner. Next, the supernatant was removed, and 0.5% sodium dodecyl sulfate (SDS; from ThermoFisher Scientific)-containing PBS was added at 20 μL per well. After allowing to stand at room temperature for 10 minutes, the supernatant was removed by centrifugation of the plates. After washing with PBS, the supernatant was removed by centrifugation, and blocking solution (PVDF Blocking Reagent for Can Get Signal [from TOYOBO Co., Ltd.]) was added at 20 μL per well. After allowing to stand for 30 minutes at room temperature, the supernatant was removed by centrifugation and a solution obtained by diluting, as primary antibodies, anti-Ras (G12V Mutant Specific) antibody (Ras (G12V Mutant Specific) (D2H12) Rabbit mAb; from Cell Signaling Technology; 500-fold diluted) and […] (Anti-beta Actin antibody; from Abcam; 5,000-fold diluted) with Can Get Signal Solution 2 (from TOYOBO Co., Ltd.) was added at 15 μL per well. The plates were allowed to stand overnight at 4° C.
The next day, the supernatant was removed by centrifugation and washed with PBS. The supernatant was removed by centrifugation, a solution obtained by diluting, as secondary antibodies, anti-rabbit IgG antibody (IRDye 800CW Goat anti-Rabbit IgG; from LI-COR Biosciences) and anti-mouse IgG antibody (IRDye 680RD Donkey anti-Mouse IgG; from LI-COR Biosciences) 1,000-fold with Can Get Signal Solution 2 was added at 15 μL per well. After allowing to stand at room temperature for 1 hour, the supernatant was removed by centrifugation and washed with PBS. After removing the supernatant, the plates were dried with air at room temperature for 2 hours or more, and the 700 nm and 800 nm fluorescent signals were measured with Aerius (from LI-COR Biosciences).
The degradation rate of RAS G12V was calculated with the RAS G12V signaling value at the time of addition of DMSO taken as 0%, which was corrected with the signaling value of β-actin, and with the RAS G12V signaling value at the time of addition of the compound of Example No. 7 at a final concentration of 3 μM taken as 100%. […]
On the technique in general: ELISA stands for enzyme-linked immunosorbent assay.

The subject of test [2] is human KRAS G12V mutant-positive pancreatic cancer line PA-TU-8902. As to the kind of experiment: Test Example 3: non-anchorage-dependent cell growth inhibition, spheroid 3D culture. Type of test: cell-based. Conditions: PaTu 8902, 144 h, PA-TU-8902 spheroid 3D culture, 6 days, CellTiter Glo 2.0. The protocol: Test Example 3: Evaluation of Non-Anchorage-Dependent Cell Growth Inhibitory Effect on Human KRAS G12V Mutant-Positive Pancreatic Cancer Line PA-TU-8902
The non-anchorage-dependent cell growth inhibitory effect of test compounds was evaluated by spheroid 3D cell culture.
PA-TU-8902 cells were seeded on low-cell-adhesive round bottom 384-well plates (PrimeSurface: from Sumitomo Bakelite) at 36 µL/well to give 5×10^2 cells per well. The cell culture was performed under the same conditions as in Test Example 1.
The next day, the test compounds (8 to 10 points having final concentrations in the range of 3 μM to 0.1 nM) and DMSO, which was the solvent for the test compounds, as a negative control were diluted 100-fold with a fresh medium and were added at 4 μL per well. After culturing in the presence of 5% CO2 at 37° C. for 6 days, CellTiter Glo 2.0 (from Promega) was added at 20 μL per well. After stirring with a plate mixer (from FINEPCR) at normal temperature for 1 hour, the luminescent signals were measured with ARVO X3 (from PerkinElmer).
With the signaling value in treatment with DMSO taken as 0% inhibition and with the signaling value in the medium alone without cells taken as 100% inhibition, the 50% inhibitory concentration values (IC50) were calculated by Sigmoid-Emax nonlinear regression analysis. The inhibition rate at 30 nM was calculated for Example No. 17.
In general terms: Cellular ATP, detected with luciferase, serves as a proxy for viable cell number.

With `Cc1c(F)cc2[nH]ncc2c1-c1c(C2CC2)cc2c(N3CC(C#N)C3)nc(OCC(C)(C)CN(C)C)nc2c1OCc1ccc(C(=O)N2CCN(Cc3ccc4c(c3)n(C)c(=O)n4N3CCC(=O)NC3=O)C[C@@H]2C)cc1` (atropisomer, axis not shown) [Example 10], in test [1], it took 6 nM to reach half-maximal degradation (DC50) and the maximal degradation (Dmax) turned out to be 88%. The pIC50 in test [2] is 7.66.
In test [1], `CO[C@@H](C)COc1nc(N2CC[C@H]2C(N)=O)c2cc(C3CC3)c(-c3c(C)c(F)cc4[nH]ncc34)c(OCc3ccc(CN4CCN(Cc5ccc6c(N7CCC(=O)NC7=O)nn(C)c6c5)CC4=O)cc3)c2n1` (atropisomer, axis not shown) [Example 20, (2S)-1-{(7 M)-6-cyclopropyl-8-({4-[(4-{[3-(2,4-dioxo-1,3-diazinan-1-yl)-1-methyl-1H-indazol-6-yl]methyl)-2-oxopiperazin-1-yl)methyl]phenyl}methoxy)-7-(6-fluoro-5-methyl-1H-indazol-4-yl)-2-[(2S)-2-methoxypropoxy]quinazolin-4-yl)azetidine-2-carboxyamide] displayed a DC50 of 29 nM and a maximal degradation (Dmax) of 85%. For the same compound, in test [2], the negative logarithm of the IC50 (pIC50) was 7.07.
Regarding `CO[C@@H](C)COc1nc(N2CC(C#N)C2)c2cc(C3CC3)c(-c3c(C)c(F)cc4[nH]ncc34)c(OCc3ccc(C(=O)N4CCN(Cc5ccc6c(N7CCC(=O)NC7=O)nn(C)c6c5)C[C@@H]4C)cc3)c2n1` (atropisomer, axis not shown) [Example 14], in test [1], the DC50 is 4 nM and the maximal degradation (Dmax) was found to be 100%. Also, the negative-log IC50 (pIC50) in test [2] is 7.92.
In test [1], `CO[C@@H](C)COc1nc(N2CC[C@H]2C(N)=O)c2cc(C3CC3)c(-c3c(C)c(F)cc4[nH]ncc34)c(OCc3ccc(C(=O)N4CCN(Cc5ccc6c(N7CCC(=O)NC7=O)nn(C)c6c5)C[C@@H]4C)cc3)c2n1` (atropisomer, axis not shown) [Example 5, (2S)-1-((7 M)-6-cyclopropyl-8-((4-[(2S)-4-{[3-(2,4-dioxo-1,3-diazinan-1-yl)-1-methyl-1H-indazol-6-yl]methyl)-2-methylpiperazine-1-carbonyl]phenyl)methoxy)-7-(6-fluoro-5-methyl-1H-indazol-4-yl)-2-[(2S)-2-methoxypropoxy]quinazolin-4-yl}azetidine-2-carboxyamide] displayed a DC50 of 5 nM and a Dmax of 97%. For the same compound, the negative logarithm of the IC50 (pIC50) in test [2] was 7.82.
In the same order, the values of `CO[C@@H](C)COc1nc(N2CC(C#N)C2)c2cc(C3CC3)c(-c3c(C)c(F)cc4[nH]ncc34)c(OCc3ccc(C(=O)N4CCN(Cc5ccc6c(c5)n(C)c(=O)n6C5CCC(=O)NC5=O)C[C@@H]4C)cc3)c2n1` (stereo partly drawn) [Example 2, 1-{(7 M)-6-cyclopropyl-8-({4-[(2S)-4-([1-(2,6-dioxopiperidin-3-yl)-3-methyl-2-oxo-2,3-dihydro-1H-benzimidazol-5-yl]methyl)-2-methylpiperazine-1-carbonyl]phenyl)methoxy)-7-(6-fluoro-5-methyl-1H-indazol-4-yl)-2-[(2S)-2-methoxypropoxy]quinazolin-4-yl)azetidine-3-carbonitrile] are 4 nM, 89% and 7.68.
